Calls of active or inactive are those of the source.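 The calls were made as follows: active = compounds giving half or more protection of infected cells from virus-caused growth loss, again on retest; inactive = the rest.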 Where a SMILES comes first, the peptide text is derived from it. Bridges are numbered along the chain shown (N, C = ends). Roman numbers before positions name the chains, in order. The star is where a group is joined. Cbz = O=C(OCc1ccccc1)*
Tested on: CEM cells HIV-1 protection, formazan growth assay
Assay: NCI AIDS Antiviral Assay
Conditions: for IC50: measured here: growth of uninfected CEM cells
Summary of the method: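 CEM (human) cells, HIV-1 infected vs uninfected, 5-point dosing, formazan growth read-out. Retest threshold 50% protection.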

## C=CCOC(=O)Cn1cnc2c(N)ncnc21
  EC50: > 200 µM
  IC50: > 200 µM

## CC(C)c1cccc(C(C)C)c1NC(=O)C(=O)C1CCC2=C(Sc3ccccc3N2)C1=O (configuration not stated)
  EC50: > 204 µM
  IC50: 2.24 µM

## O=C(O)c1ccccc1NS(=O)(=O)c1ccc(Cl)cc1
  outcome: inactive

## Cc1cccc(N=Cc2ccc(N(CCC#N)S(=O)(=O)c3ccccc3)cc2C)c1
  EC50: > 224 µM
  IC50: 145 µM

## Cc1c2c(c(C)c3c1C(=O)c1cc4c(cc1C3=O)OCO4)OCO2
  EC50: > 200 µM
  IC50: > 200 µM

## CCCCNC(=S)SSSC(=S)NCCCC
  EC50: > 200 µM
  IC50: 2.75 µM

## C#CCN(C)Cc1ccccc1
  EC50: > 200 µM
  IC50: > 200 µM

## CCC[CH2][Ge]([CH2]CCC)([CH2]CCC)[O]C(=O)C(OC)c1ccccc1 (configuration not stated)
  EC50: > 151 µM
  IC50: 7.41 µM

## COc1cccc2c(NCCC[N+](C)(C)[O-])c3c([N+](=O)[O-])ccc(OC)c3nc12
  EC50: > 200 µM
  IC50: 1.32 µM

## Cn1c(=O)c2c(nc3n(Cc4ccccc4)c(=O)c(NCCCBr)cn23)n(C)c1=O
  EC50: 30.9 µM
  IC50: 41.7 µM

## CC(=O)OCC12CCC(C)=CC1OC1C3(O)N=C(C)OC3C2(C)C12CO2 (configuration not stated)
  EC50: > 200 µM
  IC50: 0.0661 µM

## COC(=O)c1cc(C(=CCCOS(C)(=O)=O)c2cc(Cl)c(OC)c(C(=O)OC)c2)cc(Cl)c1OC
  EC50: > 200 µM
  IC50: 14.5 µM

## C=CCO[C@H]1CC[C@@]2(C)C(CC[C@]3(C)C2CC=C2[C@@H]4[C@@H](C)C(C)CC[C@]4(C(=O)O)CCC23C)C1(C)C (some centres not stated)
  outcome: inactive

## CCOC1=NC(O)c2cccn2-c2sccc21 (configuration not stated)
  EC50: > 200 µM
  IC50: 126 µM

## CC(C)[Si]1(C(C)C)OCC2OC(N3C(=O)NC(=O)C[C@@H]3C(O)c3ccccc3)CC2O[Si](C(C)C)(C(C)C)O1 (some centres not stated)
  EC50: > 200 µM
  IC50: 10.5 µM

## COC(=O)C1CC2c3ccccc3C1c1ccccc12 (configuration not stated)
  EC50: > 200 µM
  IC50: > 200 µM

## O=C(O)c1nn(-c2ccccn2)c(O)c1N=Nc1ccc(/C=C\c2ccc(N=Nc3c(C(=O)O)nn(-c4ccccn4)c3O)cc2S(=O)(=O)O)c(S(=O)(=O)O)c1
  EC50: > 1.48 µM
  IC50: > 1.48 µM

## CCC(C)[C@@H]1NC(=O)[C@@H]2CCCN2C(=O)C(CC(O)CCl)OC(=O)CCNC(=O)[C@H](C)N(C)C(=O)[C@H](C(C)C)N(C)C1=O (some centres not stated) (HELM PEPTIDE1{[CCC(C)[C@H](N[*:1])C(=O)[*:2]].[meV].[meA].[bAla].[O=C(C(CC(O)CCl)O[*:1])[*:2]].P}$PEPTIDE1,PEPTIDE1,1:R1-6:R2$$$V2.0)
  EC50: > 2 µM
  IC50: 0.11 µM

## CN(C)[C@@H]1C(=O)C(C(N)=O)=C(O)[C@@]2(O)C(=O)C3=C(O)c4c(O)ccc(Cl)c4[C@@](C)(O)[C@H]3C[C@@H]12
  EC50: > 14.1 µM
  IC50: > 14.1 µM

## C/C(=N\Nc1ccc2ccccc2n1)c1ccccn1
  EC50: > 0.2 µM
  IC50: 0.11 µM

## O=[N+]([O-])c1ccc2[nH]nc(OCc3ccccn3)c2c1
  EC50: 115 µM
  IC50: > 200 µM

## CC1(C)C2CC(O)C1(C)CC2=O (configuration not stated)
  EC50: > 200 µM
  IC50: 170 µM

## CC1C2CC(CC2O)C1(C)C (configuration not stated)
  EC50: > 1620 µM
  IC50: > 1620 µM

## CSc1s[s+]c(SC)c1-c1ccccc1
  EC50: 14.8 µM
  IC50: 16.2 µM

## Cn1c(=O)[nH]c2[nH]c3ccccc3c2c1=O
  EC50: > 200 µM
  IC50: > 200 µM

## N#CN1C2CCC1CC(=O)C2
  EC50: 67.6 µM
  IC50: 129 µM

## Cc1[nH]n(-c2ccccc2)c(=O)c1/C=N\C(N)=S
  EC50: > 200 µM
  IC50: 182 µM

## CC1=NNC(=O)C1C1CC(c2c[nH]c3ccccc23)=NN=C1Cl (configuration not stated)
  EC50: > 200 µM
  IC50: 93.3 µM

## COc1ccccc1/C=C1\Sc2scc(-c3cccc([N+](=O)[O-])c3)[n+]2C1=O
  outcome: inactive

## N#CC1(Cl)CC2CC1C1N=NN(c3ccccc3)C21 (configuration not stated)
  EC50: > 200 µM
  IC50: > 200 µM

## O=[N+]([O-])c1ccc(CSc2nncc3[nH]cnc23)cc1
  EC50: 31.6 µM
  IC50: 63.1 µM

## CC(C)CC1[C@@H](OCc2ccccc2)COS(=O)(=O)N1Cc1ccccc1 (some centres not stated)
  EC50: > 200 µM
  IC50: 77.6 µM

## Cc1ccc(-c2c3nc(c(-c4ccc(C)cc4)c4ccc([nH]4)c(-c4ccc(C)cc4)c4nc(c(-c5ccncc5)c5ccc2[nH]5)C=C4)C=C3)cc1.Cc1ccc(-c2c3nc(c(-c4ccc(C)cc4)c4ccc([nH]4)c(-c4ccc(C)cc4)c4nc(c(-c5ccncc5)c5ccc2[nH]5)C=C4)C=C3)cc1.Cc1ccc(-c2c3nc(c(-c4ccc(C)cc4)c4ccc([nH]4)c(-c4ccc(C)cc4)c4nc(c(-c5ccncc5)c5ccc2[nH]5)C=C4)C=C3)cc1.Cc1ccc(-c2c3nc(c(-c4ccc(C)cc4)c4ccc([nH]4)c(-c4ccc(C)cc4)c4nc(c(-c5ccncc5)c5ccc2[nH]5)C=C4)C=C3)cc1.O=S(=O)([O-])C(F)(F)F.[Pt]
  EC50: > 25.1 µM
  IC50: 14.1 µM

## CC1CC(C)(C)S(=O)(=O)O1 (configuration not stated)
  EC50: > 200 µM
  IC50: > 200 µM

## CC1=C(C#N)C2C(=C(N)Oc3ccccc32)C(N)=N1 (configuration not stated)
  EC50: > 200 µM
  IC50: 27.5 µM

## COc1cc(OC)c(/C=C\c2cc(/C=C/c3c(OC)cc(OC)cc3OC)c3ccccc3[n+]2C)c(OC)c1
  EC50: > 7.94 µM
  IC50: 0.355 µM

## CC12CCC(C(=Nc3cc(C(F)(F)F)cc(C(F)(F)F)c3)C1=O)C2(C)C (configuration not stated)
  EC50: > 200 µM
  IC50: 37.2 µM

## COc1ccc(/C=C/C(=O)CC(=O)/C=C/c2ccc(OC)cc2)cc1
  EC50: > 200 µM
  IC50: > 200 µM

## O=C(OCCN=c1c2ccccc2ccc2ccccc12)c1ccccc1
  EC50: > 200 µM
  IC50: 120 µM

## CSc1nnc(C(C#N)C#N)nn1
  outcome: inactive

## Cc1ccc(S(=O)(=O)N2CCN(CCO)CCN(S(=O)(=O)c3ccc(C)cc3)CCN(CCO)CC2)cc1
  EC50: > 200 µM
  IC50: 34.7 µM

## CCOP(=O)(OCC)/C(C#N)=C/c1c(C)[nH]c2ccccc12
  EC50: > 200 µM
  IC50: 158 µM

## CSc1nc2cc(Cl)ccc2c2c1C=NCCN2
  EC50: > 93.3 µM
  IC50: 15.8 µM

## O=C(O)[C@@H]1CSCN1C(=O)c1cccnc1SSc1ncccc1C(=O)N1CSC[C@H]1C(=O)O
  EC50: > 200 µM
  IC50: > 200 µM

## CCCn1c2ccccc2c2ccc3c(c21)C(=O)C=CC3=O
  EC50: > 200 µM
  IC50: 1.17 µM

## Cc1ccc2nc(-c3ccccc3)c(N=O)n2c1
  EC50: > 200 µM
  IC50: 170 µM

## Cn1cc(NC(=O)Nc2cc(C(=O)Nc3cc(C(=O)Nc4ccc5cc(S(=O)(=O)O)cc(S(=O)(=O)O)c5c4)n(C)c3)n(C)c2)cc1C(=O)Nc1cc(C(=O)Nc2ccc3cc(S(=O)(=O)O)cc(S(=O)(=O)O)c3c2)n(C)c1
  EC50: 33.9 µM
  IC50: > 100 µM

## Cc1ccc2c3c(c(C)nc2c1)C(=O)c1ccccc1-3
  EC50: > 10.5 µM
  IC50: > 10.5 µM

## CCCC(=O)c1c(NOC2OC(COC(C)=O)C(OC(C)=O)C(OC(C)=O)C2OC(C)=O)nc(OC)n(C)c1=O (configuration not stated)
  EC50: > 63.1 µM
  IC50: > 63.1 µM

## COC(=O)NC1=Nc2ccccc2C(=O)NN1
  EC50: > 200 µM
  IC50: > 200 µM

## CCOC(OCC)c1ccc(N(C)C)cc1.[C-]#[O+].[C-]#[O+].[C-]#[O+].[Cr]
  EC50: > 20 µM
  IC50: 3.39 µM

## [N-]=[N+]=Nc1c(Cl)c(=O)n(-c2ccccc2)c2ccccc12
  EC50: > 200 µM
  IC50: 29.5 µM

## CC(C)C(NC(=O)C(CSSCC(NC(=O)OCc1ccccc1)C(=O)NC(C(=O)O)C(C)C)NC(=O)OCc1ccccc1)C(=O)O (stereo not drawn) (I: Cbz-Cys-Val-OH / II: Cbz-Cys-Val-OH; disulfide I:1-II:1; configuration not given here)
  EC50: > 200 µM
  IC50: 112 µM

## O=[N+]([O-])C(C=Nc1ccccc1)C=Nc1ccccc1 (configuration not stated)
  EC50: > 200 µM
  IC50: 107 µM

## COc1cc(C2NCCC(c3ccccc3)(c3ccccc3)N2)cc(OC)c1OC (configuration not stated)
  EC50: > 200 µM
  IC50: 19.5 µM

## c1ccc2c(c1)N=C(c1ccc3ccccc3c1)CC(c1cccc3ccccc13)S2 (configuration not stated)
  EC50: > 2.51 µM
  IC50: > 2.51 µM

## CCC[CH2][Sn]([CH2]CCC)([O]C(=O)c1cc(F)ccc1F)[O]C(=O)c1cc(F)ccc1F
  EC50: > 13.2 µM
  IC50: 1 µM

## CCOC(=O)CCC(=O)Oc1ccc2c(c1OC(=O)CCC(=O)OCC)C(=O)c1ccccc1C2=O
  EC50: > 87.1 µM
  IC50: 46.8 µM

## Cc1cn(C(CO)OC(CO)CP(=O)(O)O)c(=O)[nH]c1=O (configuration not stated)
  EC50: > 200 µM
  IC50: > 200 µM

## CCOC1OC(COC(=O)C(C)(C)C)C(O)CC1n1cc(C)c(=O)[nH]c1=O (configuration not stated)
  EC50: > 200 µM
  IC50: > 200 µM

## O=C(N/C(=C\c1ccccc1[N+](=O)[O-])c1nc2ccccc2[nH]1)c1ccccc1
  EC50: > 49 µM
  IC50: > 49 µM

## Oc1c(N2CCCCC2)cc(-c2cc(N3CCCCC3)c(O)c3ccccc23)c2ccccc12
  EC50: > 200 µM
  IC50: 30.2 µM

## O=C(NCCCCCCCN1CCCCCCC1)C(C1CCCCC1)C1CCCCC1
  EC50: > 200 µM
  IC50: 10.7 µM

## NC1=CN(CCCO)C2=N/C(=C\c3ccccc3)C(=O)N12
  EC50: > 200 µM
  IC50: > 200 µM

## CC1=C(C(=O)OC23CC4CC(CC(C4)C2)C3)C(c2ccccc2OC(F)F)C(C(=O)OC23CC4CC(CC(C4)C2)C3)=C(C)N1 (configuration not stated)
  EC50: > 100 µM
  IC50: > 100 µM

## CN1COCc2cc3cc4c(cc3nc21)OCCO4
  EC50: > 200 µM
  IC50: 97.7 µM

## NN1C(=O)CS/C1=N\C(=S)N/N=C1/SCC(=O)N1N
  EC50: 57.5 µM
  IC50: 85.1 µM

## Cc1[nH]n(-c2nc(O)c(-c3ccccc3)c(=O)[nH]2)c(=O)c1CCO
  EC50: > 200 µM
  IC50: > 200 µM

## COc1cc(C[C@H]2COC(=O)[C@]2(O)Cc2ccc(O)c(OC)c2)ccc1O
  EC50: 1.35 µM
  IC50: 4.79 µM

## c1ccc(CNc2ccc3[nH]c4cnccc4c3c2)cc1
  EC50: > 251 µM
  IC50: 36.3 µM

## O=S(=O)([O-])[O-].[Fe+2].c1ccc(/C(=N\Nc2ccccn2)c2ccccn2)cc1
  outcome: inactive

## Cc1[nH]nc2c1NC(=O)OC(C)C2 (configuration not stated)
  EC50: 132 µM
  IC50: 490 µM

## NC(N)=NS(=O)(=O)c1ccc(NNc2c3ccccc3nc3c(C(=O)Nc4ccc(S(=O)(=O)N=C(N)N)cc4)cccc23)cc1
  EC50: > 200 µM
  IC50: 33.1 µM

## Cc1ccc(CS(=O)(=O)C/N=c2\sc3ccccc3nc2/C=C(\O)c2ccc(Cl)cc2)cc1
  EC50: > 200 µM
  IC50: > 200 µM

## O=C(NCCN(CCNC(=O)c1cccc(=O)n1O)CCNC(=O)c1cccc(=O)n1O)c1cccc(=O)n1O
  EC50: > 200 µM
  IC50: > 200 µM

## O=c1/c(=C\c2ccc(Cl)c(Cl)c2)sc2n1CCN=2
  EC50: > 200 µM
  IC50: > 200 µM
